Data from patent US20200121704A1, “METHODS FOR TREATING HYPERTENSION AND ARTERIAL STIFFNESS” (THE REGENTS OF THE UNIVERSITY OF COLORADO, A BODY CORPORATE, priority 2017, published 2020).

Legend:
Type in all cases: in vivo, human
[1] = tested on: healthy middle-aged and older adults; experiment: Treatment-emergent adverse events and tolerability, randomized double blinded placebo controlled crossover study
Method: The inventors hypothesized that oral supplementation with the nicotinamide adenine dinucleotide (NAD+) increasing compound, nicotinamide riboside (NR) would reduce blood pressure (BP) and aortic pulse wave velocity (aPWV, a measure of large elastic artery stiffness). This hypothesis was tested in healthy middle-aged and older human adults (65±2 yrs, n=24) in a randomized, placebo-controlled crossover study.
(§1) Sixty subjects were consented for this study. This study was conducted in the Integrative Physiology of Aging Laboratory and the Clinical and Translational Research Center (CTRC) at the University of Colorado Boulder. All blood assays were performed at either Boulder Community Hospital or the University of Colorado Denver Anschutz Medical Campus CTRC Core Laboratory. All testing sessions were performed after an overnight fast and 24-hour abstention from exercise and alcohol consumption. All subjects refrained from all prescription medications for 24 hours and over the counter medications for 48 hours prior to all testing visits.
A randomized, double blinded, placebo controlled crossover design was implemented for this study. Healthy middle-aged and older (55-79 years) adult men and postmenopausal women were recruited from the Boulder/Denver metro area. Subjects were nonsmokers and free of clinical diseases as assessed by a medical history, physical examination, blood chemistry and resting and exercise ECG. […] Four subjects dropped out of the study prior to randomization due to time commitment and one subject was unresponsive to scheduling requests resulting in a total of 30 remaining subjects for randomization. Of these, fifteen subjects were randomized to Group A, which received placebo pills during the first 6 weeks of the study before crossing over to receive NR pills for 6 weeks. The remaining fifteen subjects were randomized to Group B, which received NR pills first followed by placebo. One subject was excluded from Group A due to a change in medication status that no longer met inclusion criteria and two subjects in Group A dropped out of the study due to a complaint of side effects. Two subjects were excluded from Group B due to a change in health or medication status that no longer met inclusion criteria and one subject dropped out of Group B due to a broken ankle, resulting in a total of 24 subjects who completed the trial (FIG. 1). These subjects were well matched by age, sex and baseline characteristics between groups and all baseline values were within normal clinical ranges, as shown in Table 1:
14 treatment-emergent adverse events (AEs) were reported by 7 of the 30 participants enrolled in the study.

[2] = Comprehensive metabolic panel (blood chemistry, renal function, liver enzymes)
Method: as §1
Clinical laboratory values were obtained from blood samples collected at the end of each intervention phase in 21 subjects. Complete blood work was not obtained in three subjects due to a failed catheterization during at least one of the testing phases.

endothelin-1 (ET-1) = experiment: Circulating endothelin-1 concentration; conditions: compared with placebo
Excerpt: To gain potential insight into the underlying mechanisms by which nicotinamide riboside lowers blood pressure, we assessed plasma concentrations of endothelin-1 (ET-1), a potent vasoconstrictor that is released by the vascular endothelium to regulate vascular smooth muscle tone. […] Thus, nicotinamide riboside may lower blood pressure and arterial stiffness by suppressing ET-1-mediated vasoconstriction.

[3] = tested on: healthy middle-aged and older adults; experiment: Carotid-femoral pulse wave velocity (large elastic artery stiffness)
Method: Carotid-femoral PWV, the gold-standard assessment of elastic artery stiffness in humans, was measured using transcutaneous tonometry. Pressure waveforms were recorded simultaneously from the carotid and femoral arteries using two identical non-invasive pressure tonometers (SPT-301, Millar Instruments, Houston, Tex., USA). The transit distance was calculated as the distance between the carotid and femoral recording sites, after subtracting the distance between the carotid recording site and the sternal notch. PWV was calculated as the transit distance divided by the time delay between the foot of each pressure wave.

[4] = NR condition, end of 6-week phase, mean ± SEM, 21 subjects

## NC(=O)c1ccc[n+]([C@@H]2O[C@H](CO)[C@@H](O)[C@H]2O)c1 [NR, nicotinamide riboside]
[1]; NR condition, 6 weeks oral
  Drowsiness, # events: 0 (0)
  Drowsiness, # events/patient: 0 (0)
  Fainting, # events: 0 (0)
  Fainting, # events/patient: 0 (0)
  Flushing/Hot flashes, # events: 1 (1)
  Flushing/Hot flashes, # events/patient: 1 (1)
  Headache, # events: 0 (0)
  Headache, # events/patient: 0 (0)
  Increased Bruising, # events: 1 (1)
  Increased Bruising, # events/patient: 1 (1)
  Leg cramps, # events: 1 (1)
  Leg cramps, # events/patient: 1 (1)
  Nausea, # events: 1 (1)
  Nausea, # events/patient: 1 (1)
  Skin Rash, # events: 1 (1)
  Skin Rash, # events/patient: 1 (1)
[1]; all AEs
  Severity of adverse events: mild in severity
[1]; at the dose tested
  Tolerability: well tolerated
[1]; during the study
  Severe adverse events: No severe adverse events occurred
[1]; flushing reported in both placebo and NR conditions
  Association of flushing with supplementation: unlikely associated with NR supplementation
[2]; [4]
  ALT (SGPT): 30.8 ± 2.4 IU/L
  AST (SGOT): 32.1 ± 1.5 IU/L
  BUN: 17 ± 1 mg/dL
  CO2: 26 ± 1 mEq/L
  albumin: 3.6 ± 0.1 g/dL
  alk phosphatase: 63.4 ± 2.9 IU/L
  calcium: 9.2 ± 0.1 mg/dL
  chloride: 104 ± 1 mEq/L
  creatinine: 0.9 ± 0.03 mg/dL
  eGFR: 74 ± 3 ml/min/1.73 m^2
  glucose: 87 ± 1 mg/dL
  potassium: 4.2 ± 0.1 mEq/L
  sodium: 139 ± 1 mEq/L
  total bilirubin: 0.8 ± 0.1 mg/dL
  total protein: 6.3 ± 0.1 g/dL
[2]; NR vs placebo
  Difference between treatment conditions for blood chemistry (including markers of renal function and liver enzymes): No meaningful differences
endothelin-1 (ET-1)
  Serum ET-1 concentrations: lowers serum ET-1 concentrations
[3]; all subjects, regardless of baseline blood pressure status
  PWV lowering by baseline blood pressure status: lowered PWV by a similar degree in all subjects
[3]; following NR supplementation compared with placebo
  Large elastic artery stiffness, aortic pulse wave velocity (PWV): significantly reduced
